Assay: Solubility (20° C.) of branched chain-containing and straight chain-containing aromatic compounds in various solvents
Conditions: for solubility in CPME: saturated in CPME (cyclopentylmethylether) at 20° C.; for solubility in chloroform: saturated in chloroform at 20° C.; for solubility in ethyl acetate: saturated in ethyl acetate at 20° C.; for solubility in isopropyl acetate: saturated in isopropyl acetate at 20° C.; for solubility in toluene: saturated in toluene at 20° C.

| Compound | solubility in CPME [wt %] | solubility in chloroform [wt %] | solubility in ethyl acetate [wt %] | solubility in isopropyl acetate [wt %] | solubility in toluene [wt %] |
| --- | --- | --- | --- | --- | --- |
| CCCCCCCCCCCCCCCCCCOc1cc(CO)cc(OCCCCCCCCCCCCCCCCCC)c1OCCCCCCCCCCCCCCCCCC [Comparative Example 1] | 4.5 | 9.9 | 0.2 | 0.02 | 2.6 |
| CCCCCCCCCCCCCCCCCCCCCCOc1ccc(CO)c(OCCCCCCCCCCCCCCCCCCCCCC)c1 [compound 2] | – | – | 0.3 | 0.06 | – |
| TERGITOL-Adduct of 3-hydroxymethylphenol [Example 21] | >50 | >50 | >50 | – | – |

Next, values leading:

| solubility in CPME [wt %] | solubility in chloroform [wt %] | solubility in ethyl acetate [wt %] | solubility in isopropyl acetate [wt %] | solubility in toluene [wt %] | Compound |
| --- | --- | --- | --- | --- | --- |
| >50 | >50 | >50 | >50 | >50 | 3,4,5-tri(2′,3′-dihydrophytyloxy)benzyl alcohol [Example 5] |
| 0.01 | 0.8 | 0.2 | 0.1 | 0.01 | CCCCCCCCCCCCCCCCCCCCCCOc1ccc(C(N)c2ccc(C)cc2)cc1 (centres unmarked) [compound 3] |

From patent publication US10711033B2, “Branched chain-containing aromatic compound” (AJINOMOTO CO., INC., priority 2010, dated 2020)
